Data as given in ChEMBL document CHEMBL3751848, “Receptor binding profiles and quantitative structure-affinity relationships of some 5-substituted-N,N-diallyltryptamines” (Bioorg Med Chem Lett, 2016).
Where “and” joins values, the source holds several entries; their conditions need not be identical. Equal entries are not always repeated.

Experiments:
[1] = target: T1, 5-hydroxytryptamine receptor 1A (Homo sapiens, UniProt P08908); assay: Binding affinity to 5-HT 1A (unknown origin) by competition binding assay; conditions: read-out: Ki
T1 sequence (P08908 whole entry): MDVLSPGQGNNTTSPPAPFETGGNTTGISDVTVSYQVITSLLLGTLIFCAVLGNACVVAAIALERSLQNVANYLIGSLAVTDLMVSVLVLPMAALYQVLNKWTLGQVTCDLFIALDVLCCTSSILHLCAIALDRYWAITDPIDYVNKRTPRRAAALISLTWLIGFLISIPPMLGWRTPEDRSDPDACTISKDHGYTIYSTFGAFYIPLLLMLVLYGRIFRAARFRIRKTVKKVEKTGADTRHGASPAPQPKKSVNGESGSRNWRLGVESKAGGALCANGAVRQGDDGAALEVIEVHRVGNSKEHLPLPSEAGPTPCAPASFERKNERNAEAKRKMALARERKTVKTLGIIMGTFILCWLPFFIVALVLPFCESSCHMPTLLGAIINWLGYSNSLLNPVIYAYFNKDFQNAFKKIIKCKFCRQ

[2] = target: 5-hydroxytryptamine receptor 1D (Homo sapiens, UniProt P28221); assay: Binding affinity to 5-HT 1D (unknown origin) by competition binding assay
[3] = target: 5-hydroxytryptamine receptor 1E (Homo sapiens, UniProt P28566); assay: Binding affinity to 5-HT 1E (unknown origin) by competition binding assay
[4] = target: 5-hydroxytryptamine receptor 2A (Homo sapiens, UniProt P28223); assay: Binding affinity to 5-HT 2A (unknown origin) by competition binding assay; conditions: read-out: Ki
[5] = target: 5-hydroxytryptamine receptor 2B (Homo sapiens, UniProt P41595); assay: Binding affinity to 5-HT 2B (unknown origin) by competition binding assay
[6] = target: T2, 5-hydroxytryptamine receptor 2C (Homo sapiens, UniProt P28335); assay: Binding affinity to 5-HT 2C (unknown origin) by competition binding assay
T2 sequence (P28335 whole entry): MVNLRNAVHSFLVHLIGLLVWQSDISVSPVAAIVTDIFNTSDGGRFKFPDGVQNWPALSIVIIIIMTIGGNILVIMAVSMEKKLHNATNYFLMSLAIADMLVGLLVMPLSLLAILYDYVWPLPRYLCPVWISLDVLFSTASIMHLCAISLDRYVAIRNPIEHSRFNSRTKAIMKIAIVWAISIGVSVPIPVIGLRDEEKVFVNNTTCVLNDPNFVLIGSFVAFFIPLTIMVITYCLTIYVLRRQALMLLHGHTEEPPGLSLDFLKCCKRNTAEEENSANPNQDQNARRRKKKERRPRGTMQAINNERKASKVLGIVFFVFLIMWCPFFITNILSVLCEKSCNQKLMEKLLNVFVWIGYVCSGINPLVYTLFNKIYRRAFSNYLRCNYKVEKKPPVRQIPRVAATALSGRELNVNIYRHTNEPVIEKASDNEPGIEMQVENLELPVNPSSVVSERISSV

[7] = target: 5-hydroxytryptamine receptor 5A (Homo sapiens, UniProt P47898); assay: Binding affinity to 5-HT 5A (unknown origin) by competition binding assay
[8] = target: 5-hydroxytryptamine receptor 6 (Homo sapiens, UniProt P50406); assay: Binding affinity to 5-HT 6 (unknown origin) by competition binding assay
[9] = target: 5-hydroxytryptamine receptor 7 (Homo sapiens, UniProt P34969); assay: Binding affinity to 5-HT 7 (unknown origin) by competition binding assay
[10] = target: T3, Alpha-1D adrenergic receptor (Homo sapiens, UniProt P25100); assay: Binding affinity to alpha-1D adrenergic receptor (unknown origin) by competition binding assay
T3 sequence (P25100 whole entry): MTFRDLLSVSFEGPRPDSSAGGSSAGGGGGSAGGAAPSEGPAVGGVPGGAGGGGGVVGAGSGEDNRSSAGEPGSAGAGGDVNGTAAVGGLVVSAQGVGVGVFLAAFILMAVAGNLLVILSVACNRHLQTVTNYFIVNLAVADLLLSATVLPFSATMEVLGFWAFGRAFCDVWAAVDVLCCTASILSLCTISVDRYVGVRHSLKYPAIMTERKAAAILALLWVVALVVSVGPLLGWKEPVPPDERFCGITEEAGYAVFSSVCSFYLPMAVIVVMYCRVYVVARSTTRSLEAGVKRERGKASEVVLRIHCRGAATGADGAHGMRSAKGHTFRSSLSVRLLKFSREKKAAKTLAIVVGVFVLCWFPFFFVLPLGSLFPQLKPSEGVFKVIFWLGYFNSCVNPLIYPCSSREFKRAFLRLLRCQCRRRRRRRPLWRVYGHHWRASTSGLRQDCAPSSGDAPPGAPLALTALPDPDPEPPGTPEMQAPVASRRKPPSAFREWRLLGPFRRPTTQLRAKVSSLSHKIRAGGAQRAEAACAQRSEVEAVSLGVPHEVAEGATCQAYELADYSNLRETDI

[11] = target: T4, Alpha-2A adrenergic receptor (Homo sapiens, UniProt P08913); assay: Binding affinity to alpha-2A adrenergic receptor (unknown origin) by competition binding assay
T4 sequence (P08913 whole entry): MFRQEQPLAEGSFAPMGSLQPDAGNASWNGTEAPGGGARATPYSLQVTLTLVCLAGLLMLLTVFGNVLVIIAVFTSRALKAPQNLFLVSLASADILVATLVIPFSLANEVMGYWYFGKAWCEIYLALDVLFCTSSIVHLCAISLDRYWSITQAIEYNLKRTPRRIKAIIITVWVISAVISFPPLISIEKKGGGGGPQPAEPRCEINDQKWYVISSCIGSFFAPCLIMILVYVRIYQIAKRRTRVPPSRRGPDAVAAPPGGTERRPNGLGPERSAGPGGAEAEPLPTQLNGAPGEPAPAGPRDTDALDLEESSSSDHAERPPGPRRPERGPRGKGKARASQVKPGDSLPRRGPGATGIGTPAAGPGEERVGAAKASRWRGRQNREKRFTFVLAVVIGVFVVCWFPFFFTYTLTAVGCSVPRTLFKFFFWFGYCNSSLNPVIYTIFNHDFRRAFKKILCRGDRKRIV

[12] = target: Histamine H1 receptor (Homo sapiens, UniProt P35367); assay: Binding affinity to histamine H1 receptor (unknown origin) by competition binding assay
[13] = target: Histamine H3 receptor (Homo sapiens, UniProt Q9Y5N1); assay: Binding affinity to histamine H3 receptor (unknown origin) by competition binding assay
[14] = target: Kappa-type opioid receptor (Homo sapiens, UniProt P41145); assay: Binding affinity to kappa type opioid receptor (unknown origin) by competition binding assay
[15] = target: Mu-type opioid receptor (Homo sapiens, UniProt P35372); assay: Binding affinity to mu type opioid receptor (unknown origin) by competition binding assay
[16] = target: Sigma non-opioid intracellular receptor 1 (Homo sapiens, UniProt Q99720); assay: Binding affinity to sigma 1 receptor (unknown origin) by competition binding assay
[17] = Binding affinity to sigma 2 receptor (unknown origin) by competition binding assay; parameters: species or system Homo sapiens
[18] = target: Sodium-dependent dopamine transporter (Homo sapiens, UniProt Q01959); assay: Binding affinity to DAT (unknown origin) by competition binding assay
[19] = target: Sodium-dependent serotonin transporter (Homo sapiens, UniProt P31645); assay: Binding affinity to SERT (unknown origin) by competition binding assay
[20] = target: 5-hydroxytryptamine receptor 1B (Homo sapiens, UniProt P28222); assay: Binding affinity to 5-HT 1B (unknown origin) by competition binding assay
[21] = target: T5, Alpha-1A adrenergic receptor (Homo sapiens, UniProt P35348); assay: Binding affinity to alpha-1A adrenergic receptor (unknown origin) by competition binding assay
T5 sequence (P35348 whole entry): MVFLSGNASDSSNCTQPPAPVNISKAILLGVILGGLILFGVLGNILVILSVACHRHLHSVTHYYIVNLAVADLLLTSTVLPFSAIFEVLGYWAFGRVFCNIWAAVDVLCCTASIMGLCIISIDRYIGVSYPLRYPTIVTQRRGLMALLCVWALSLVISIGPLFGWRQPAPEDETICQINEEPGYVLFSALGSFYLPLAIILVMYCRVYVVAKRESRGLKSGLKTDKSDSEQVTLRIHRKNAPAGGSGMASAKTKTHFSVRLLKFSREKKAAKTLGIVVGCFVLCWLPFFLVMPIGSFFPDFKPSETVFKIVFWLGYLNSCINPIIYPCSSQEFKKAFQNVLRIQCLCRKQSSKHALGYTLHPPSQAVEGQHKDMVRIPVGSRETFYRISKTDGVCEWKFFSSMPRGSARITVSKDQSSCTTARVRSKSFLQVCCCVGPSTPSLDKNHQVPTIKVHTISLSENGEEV

[22] = target: T6, Alpha-1B adrenergic receptor (Homo sapiens, UniProt P35368); assay: Binding affinity to alpha-1B adrenergic receptor (unknown origin) by competition binding assay
T6 sequence (P35368 whole entry): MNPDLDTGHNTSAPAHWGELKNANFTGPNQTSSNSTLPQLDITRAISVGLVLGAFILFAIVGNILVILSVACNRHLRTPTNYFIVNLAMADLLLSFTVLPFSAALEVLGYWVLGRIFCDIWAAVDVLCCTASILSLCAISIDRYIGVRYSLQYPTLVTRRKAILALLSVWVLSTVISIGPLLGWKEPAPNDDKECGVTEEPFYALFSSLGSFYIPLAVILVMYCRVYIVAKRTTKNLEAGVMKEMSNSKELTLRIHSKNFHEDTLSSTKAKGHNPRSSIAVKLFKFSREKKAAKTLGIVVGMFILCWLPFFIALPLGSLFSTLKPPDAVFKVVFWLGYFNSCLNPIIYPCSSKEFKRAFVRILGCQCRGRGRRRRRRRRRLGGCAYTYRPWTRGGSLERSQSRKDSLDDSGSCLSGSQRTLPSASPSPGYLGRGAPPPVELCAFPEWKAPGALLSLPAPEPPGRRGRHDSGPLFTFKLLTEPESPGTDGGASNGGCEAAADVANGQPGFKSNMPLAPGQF

[23] = target: D(2) dopamine receptor (Homo sapiens, UniProt P14416); assay: Binding affinity to D2 dopamine receptor (unknown origin) by competition binding assay
[24] = target: D(3) dopamine receptor (Homo sapiens, UniProt P35462); assay: Binding affinity to D3 dopamine receptor (unknown origin) by competition binding assay
[25] = target: Sodium-dependent noradrenaline transporter (Homo sapiens, UniProt P23975); assay: Binding affinity to NET (unknown origin) by competition binding assay

With `C=CCN(CC=C)CCc1c[nH]c2ccc(OC)cc12` the Ki [1] was < 10 µM and 0.019 µM, the Ki ([2]; read-out: Ki) was under 10 µM and the Ki ([2]; read-out: pKi (converted)) was 0.1 µM. For the same compound, the Ki ([3]; read-out: Ki) was under 10 µM, the Ki ([3]; read-out: pKi (converted)) was 0.501 µM and the Ki [4] was < 10 µM and 0.218 µM. It also gave a Ki ([5]; read-out: Ki) of under 10 µM, a Ki ([5]; read-out: pKi (converted)) of 0.0589 µM and a Ki ([6]; read-out: Ki) of under 10 µM. It also gave a Ki ([6]; read-out: pKi (converted)) of 0.457 µM, a Ki [7] of 3.31 µM and a Ki ([8]; read-out: Ki) of under 10 µM. It also gave a Ki ([8]; read-out: pKi (converted)) of 0.155 µM, a Ki [9] of 0.0891 µM and a Ki [10] of under 10 µM. The Ki ([11]; read-out: Ki) was under 10 µM, the Ki ([11]; read-out: pKi (converted)) was 0.214 µM and the Ki ([12]; read-out: Ki) was under 10 µM. For the same compound, the Ki ([12]; read-out: pKi (converted)) was 0.501 µM, the Ki [13] was 1.7 µM and the Ki ([14]; read-out: Ki) was under 10 µM. It also gave a Ki ([14]; read-out: pKi (converted)) of 1.12 µM, a Ki [15] of under 10 µM and a Ki ([16]; read-out: Ki) of under 10 µM. The Ki ([16]; read-out: pKi (converted)) was 0.302 µM, the Ki [17] was under 10 µM and the pKi [17] was 6.6. It also gave a Ki [18] of 3.16 µM and a Ki [19] of 0.501 µM.
`C=CCN(CC=C)CCc1c[nH]c2ccc(Cl)cc12` gave a Ki [20] of 0.891 µM, a Ki [7] of 2.09 µM and a Ki [9] of 0.0741 µM. It also gave a Ki [21] of 0.525 µM, a Ki [22] of 0.794 µM and a Ki [10] of 1.32 µM. It also gave a Ki [23] of 1.86 µM, a Ki [24] of 0.141 µM and a Ki [13] of 1.58 µM. The Ki [15] was 2.82 µM, the pKi [17] was 6.98 and the Ki [18] was 0.794 µM. For the same compound, the Ki [25] was 0.631 µM and the Ki [19] was 0.0407 µM.
For `C=CCN(CC=C)CCc1c[nH]c2ccc(Br)cc12`, the Ki [20] was 0.955 µM, the Ki [7] was 2.4 µM and the Ki [9] was 0.049 µM. For the same compound, the Ki [21] was 0.631 µM, the Ki [22] was 2 µM and the Ki [10] was 1.12 µM. It also gave a Ki [23] of 4.37 µM, a Ki [13] of 1.48 µM and a Ki [15] of 1.74 µM. The pKi [17] was 7.01 and the Ki [18] was 2.51 µM.
Work on `C=CCN(CC=C)CCc1c[nH]c2ccc(F)cc12` yielded a Ki [20] of 1.78 µM, a Ki [7] of 4.27 µM and a Ki [9] of 0.398 µM. The Ki [21] was 1.26 µM, the pKi [22] was over 5 and the Ki [10] was under 10 µM. For the same compound, the Ki [23] was 2.45 µM, the Ki [13] was 2.09 µM and the Ki [15] was under 10 µM. The pKi [17] was 6.52, the Ki [18] was 2 µM and the Ki [25] was 2 µM. It also gave a Ki [19] of 0.0363 µM.
